# Tested on: MPP-89;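 also: growth inhibition of human MPP-89 cells, read out with a cell viability assay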
# Assay: cells
# Assay type: functional, cell-based, Homo sapiens
# Conditions: Homo sapiens, MPP-89
# Description: SANGER: Inhibition of human MPP-89 cell growth in a cell viability assay.
row,SMILES,IC50 [nM]
1,COc1cc(N2CCC(N3CCN(C)CC3)CC2)ccc1Nc1ncc(Cl)c(Nc2ccccc2S(=O)(=O)C(C)C)n1 [TAE-684],579

# Tested on: MZ2-MEL;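 also: growth inhibition of MZ2-MEL cells read out with a cell viability assay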
# Assay: cells
# Assay type: functional, cell-based, Homo sapiens
# Conditions: Homo sapiens, MZ2-MEL
# Description: SANGER: Inhibition of human MZ2-MEL cell growth in a cell viability assay.
row,SMILES,IC50 [nM]
1,COc1cc(N2CCC(N3CCN(C)CC3)CC2)ccc1Nc1ncc(Cl)c(Nc2ccccc2S(=O)(=O)C(C)C)n1 [TAE-684],> 2000

# Tested on: NB5;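 also: growth inhibition of NB5 cells, read out as cell viability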
# Assay: cells
# Assay type: functional, cell-based, Homo sapiens
# Conditions: Homo sapiens, NB5
# Description: SANGER: Inhibition of human NB5 cell growth in a cell viability assay.
row,SMILES,IC50 [nM]
1,COc1cc(N2CCC(N3CCN(C)CC3)CC2)ccc1Nc1ncc(Cl)c(Nc2ccccc2S(=O)(=O)C(C)C)n1 [TAE-684],1580

# Tested on: NB6;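 also: growth inhibition of NB6 cells, read out by a cell viability assay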
# Assay: cells
# Assay type: functional, cell-based, Homo sapiens
# Conditions: Homo sapiens, NB6
# Description: SANGER: Inhibition of human NB6 cell growth in a cell viability assay.
row,SMILES,IC50 [nM]
1,COc1cc(N2CCC(N3CCN(C)CC3)CC2)ccc1Nc1ncc(Cl)c(Nc2ccccc2S(=O)(=O)C(C)C)n1 [TAE-684],> 2000

# Tested on: NCI-H1304;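 also: growth inhibition of the cancer cell line, measured in a cell viability assay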
# Assay: cells
# Assay type: functional, cell-based, Homo sapiens
# Conditions: Homo sapiens, NCI-H1304
# Description: SANGER: Inhibition of human NCI-H1304 cell growth in a cell viability assay.
row,SMILES,IC50 [nM]
1,COc1cc(N2CCC(N3CCN(C)CC3)CC2)ccc1Nc1ncc(Cl)c(Nc2ccccc2S(=O)(=O)C(C)C)n1 [TAE-684],1130

# Tested on: NCI-H1395;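 also: cell viability assay read-out quantifying reduced proliferation of human NCI-H1395 cells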
# Assay: cells
# Assay type: functional, cell-based, Homo sapiens
# Conditions: Homo sapiens, NCI-H1395
# Description: SANGER: Inhibition of human NCI-H1395 cell growth in a cell viability assay.
row,SMILES,IC50 [nM]
1,COc1cc(N2CCC(N3CCN(C)CC3)CC2)ccc1Nc1ncc(Cl)c(Nc2ccccc2S(=O)(=O)C(C)C)n1 [TAE-684],> 2000

# Tested on: NCI-H2126;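 also: growth inhibition of the cancer cell line, determined with a cell viability readout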
# Assay: cells
# Assay type: functional, cell-based, Homo sapiens
# Conditions: Homo sapiens, NCI-H2126
# Description: SANGER: Inhibition of human NCI-H2126 cell growth in a cell viability assay.
row,SMILES,IC50 [nM]
1,COc1cc(N2CCC(N3CCN(C)CC3)CC2)ccc1Nc1ncc(Cl)c(Nc2ccccc2S(=O)(=O)C(C)C)n1 [TAE-684],> 2000

# Tested on: NCI-H747;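 also: growth inhibition of human NCI-H747 cells, read out by a cell viability assay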
# Assay: cells
# Assay type: functional, cell-based, Homo sapiens
# Conditions: Homo sapiens, NCI-H747
# Description: SANGER: Inhibition of human NCI-H747 cell growth in a cell viability assay.
row,SMILES,IC50 [nM]
1,COc1cc(N2CCC(N3CCN(C)CC3)CC2)ccc1Nc1ncc(Cl)c(Nc2ccccc2S(=O)(=O)C(C)C)n1 [TAE-684],499

# Tested on: NKM-1;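 also: growth inhibition of NKM-1 cells, read out with a cell viability assay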
# Assay: cells
# Assay type: functional, cell-based, Homo sapiens
# Conditions: Homo sapiens, NKM-1
# Description: SANGER: Inhibition of human NKM-1 cell growth in a cell viability assay.
row,SMILES,IC50 [nM]
1,COc1cc(N2CCC(N3CCN(C)CC3)CC2)ccc1Nc1ncc(Cl)c(Nc2ccccc2S(=O)(=O)C(C)C)n1 [TAE-684],1690

# Tested on: OCUB-M;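 also: growth inhibition of the cancer cell line, read out through a cell viability assay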
# Assay: cells
# Assay type: functional, cell-based
# Conditions: Homo sapiens
# Description: SANGER: Inhibition of human OCUB-M cell growth in a cell viability assay.
row,SMILES,IC50 [nM]
1,COc1cc(N2CCC(N3CCN(C)CC3)CC2)ccc1Nc1ncc(Cl)c(Nc2ccccc2S(=O)(=O)C(C)C)n1 [TAE-684],1360

# Tested on: OVCAR-4;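 also: growth inhibition of human OVCAR-4 cells, measured with a cell viability assay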
# Assay: cells
# Assay type: functional, cell-based, Homo sapiens
# Conditions: Homo sapiens, OVCAR-4
# Description: SANGER: Inhibition of human OVCAR-4 cell growth in a cell viability assay.
row,SMILES,IC50 [nM]
1,COc1cc(N2CCC(N3CCN(C)CC3)CC2)ccc1Nc1ncc(Cl)c(Nc2ccccc2S(=O)(=O)C(C)C)n1 [TAE-684],406

# Tested on: RCC10RGB;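 also: growth inhibition of human RCC10RGB cells, read out by a cell viability assay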
# Assay: cells
# Assay type: functional, cell-based, Homo sapiens
# Conditions: Homo sapiens, RCC10RGB
# Description: SANGER: Inhibition of human RCC10RGB cell growth in a cell viability assay.
row,SMILES,IC50 [nM]
1,COc1cc(N2CCC(N3CCN(C)CC3)CC2)ccc1Nc1ncc(Cl)c(Nc2ccccc2S(=O)(=O)C(C)C)n1 [TAE-684],> 2000

# Tested on: RXF 393;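 also: growth inhibition of human RXF 393 cells, read out with a cell viability assay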
# Assay: cells
# Assay type: functional, cell-based, Homo sapiens
# Conditions: Homo sapiens, RXF 393
# Description: SANGER: Inhibition of human RXF393 cell growth in a cell viability assay.
row,SMILES,IC50 [nM]
1,COc1cc(N2CCC(N3CCN(C)CC3)CC2)ccc1Nc1ncc(Cl)c(Nc2ccccc2S(=O)(=O)C(C)C)n1 [TAE-684],558

# Tested on: SF-126;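 also: growth inhibition of human SF126 cells, read out with a cell viability assay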
# Assay: cells
# Assay type: functional, cell-based, Homo sapiens
# Conditions: Homo sapiens, SF-126
# Description: SANGER: Inhibition of human SF126 cell growth in a cell viability assay.
row,SMILES,IC50 [nM]
1,COc1cc(N2CCC(N3CCN(C)CC3)CC2)ccc1Nc1ncc(Cl)c(Nc2ccccc2S(=O)(=O)C(C)C)n1 [TAE-684],1120

# Tested on: SH-4;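 also: growth inhibition of SH-4 cells, read out with a cell viability assay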
# Assay: cells
# Assay type: functional, cell-based
# Conditions: Homo sapiens
# Description: SANGER: Inhibition of human SH-4 cell growth in a cell viability assay.
row,SMILES,IC50 [nM]
1,COc1cc(N2CCC(N3CCN(C)CC3)CC2)ccc1Nc1ncc(Cl)c(Nc2ccccc2S(=O)(=O)C(C)C)n1 [TAE-684],> 2000

# Tested on: SK-MEL-1;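 also: growth inhibition of human SK-MEL-1 cells, read out by a cell viability assay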
# Assay: cells
# Assay type: functional, cell-based, Homo sapiens
# Conditions: Homo sapiens, SK-MEL-1
# Description: SANGER: Inhibition of human SK-MEL-1 cell growth in a cell viability assay.
row,SMILES,IC50 [nM]
1,COc1cc(N2CCC(N3CCN(C)CC3)CC2)ccc1Nc1ncc(Cl)c(Nc2ccccc2S(=O)(=O)C(C)C)n1 [TAE-684],> 2000

# Tested on: SNU-C2B;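 also: cell viability readout used to measure compound-driven suppression of SNU-C2B cell proliferation, IC50 marking half-maximal growth inhibition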
# Assay: cells
# Assay type: functional, cell-based
# Conditions: Homo sapiens
# Description: SANGER: Inhibition of human SNU-C2B cell growth in a cell viability assay.
row,SMILES,IC50 [nM]
1,COc1cc(N2CCC(N3CCN(C)CC3)CC2)ccc1Nc1ncc(Cl)c(Nc2ccccc2S(=O)(=O)C(C)C)n1 [TAE-684],> 2000

# Tested on: ALL-PO;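 also: growth inhibition of ALL-PO cells, read out by a cell viability assay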
# Assay: cells
# Assay type: functional, cell-based, Homo sapiens
# Conditions: Homo sapiens, ALL-PO
# Description: SANGER: Inhibition of human ALL-PO cell growth in a cell viability assay.
row,SMILES,IC50 [nM]
1,COc1cc(N2CCC(N3CCN(C)CC3)CC2)ccc1Nc1ncc(Cl)c(Nc2ccccc2S(=O)(=O)C(C)C)n1 [TAE-684],245

# Tested on: BB49-HNC;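 also: cell viability assay read-out, reported as inhibition of BB49-HNC cell growth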
# Assay: cells
# Assay type: functional, cell-based, Homo sapiens
# Conditions: Homo sapiens, BB49-HNC
# Description: SANGER: Inhibition of human BB49-HNC cell growth in a cell viability assay.
row,SMILES,IC50 [nM]
1,COc1cc(N2CCC(N3CCN(C)CC3)CC2)ccc1Nc1ncc(Cl)c(Nc2ccccc2S(=O)(=O)C(C)C)n1 [TAE-684],> 2000

# Tested on: BE-13;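 also: growth inhibition of human BE-13 cells, measured with a cell viability assay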
# Assay: cells
# Assay type: functional, cell-based, Homo sapiens
# Conditions: Homo sapiens, BE-13
# Description: SANGER: Inhibition of human BE-13 cell growth in a cell viability assay.
row,SMILES,IC50 [nM]
1,COc1cc(N2CCC(N3CCN(C)CC3)CC2)ccc1Nc1ncc(Cl)c(Nc2ccccc2S(=O)(=O)C(C)C)n1 [TAE-684],> 2000

# Tested on: C2BBe1;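 also: growth inhibition of C2BBe1 cells, read out through a viability assay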
# Assay: cells
# Assay type: functional, cell-based, Homo sapiens
# Conditions: Homo sapiens, C2BBe1
# Description: SANGER: Inhibition of human C2BBe1 cell growth in a cell viability assay.
row,SMILES,IC50 [nM]
1,COc1cc(N2CCC(N3CCN(C)CC3)CC2)ccc1Nc1ncc(Cl)c(Nc2ccccc2S(=O)(=O)C(C)C)n1 [TAE-684],1290

# Tested on: TE-10;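 also: growth inhibition of TE-10 cells, measured by a cell viability assay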
# Assay: cells
# Assay type: functional, cell-based, Homo sapiens
# Conditions: Homo sapiens, TE-10
# Description: SANGER: Inhibition of human TE-10 cell growth in a cell viability assay.
row,SMILES,IC50 [nM]
1,COc1cc(N2CCC(N3CCN(C)CC3)CC2)ccc1Nc1ncc(Cl)c(Nc2ccccc2S(=O)(=O)C(C)C)n1 [TAE-684],715

# Tested on: TGBC24TKB;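 also: growth inhibition of human TGBC24TKB cells, read out with a cell viability assay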
# Assay: cells
# Assay type: functional, cell-based
# Conditions: Homo sapiens
# Description: SANGER: Inhibition of human TGBC24TKB cell growth in a cell viability assay.
row,SMILES,IC50 [nM]
1,COc1cc(N2CCC(N3CCN(C)CC3)CC2)ccc1Nc1ncc(Cl)c(Nc2ccccc2S(=O)(=O)C(C)C)n1 [TAE-684],302

# Tested on: VA-ES-BJ;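 also: growth inhibition of the VA-ES-BJ cell line, read out by a cell viability assay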
# Assay: cells
# Assay type: functional, cell-based, Homo sapiens
# Conditions: Homo sapiens, VA-ES-BJ
# Description: SANGER: Inhibition of human VA-ES-BJ cell growth in a cell viability assay.
row,SMILES,IC50 [nM]
1,COc1cc(N2CCC(N3CCN(C)CC3)CC2)ccc1Nc1ncc(Cl)c(Nc2ccccc2S(=O)(=O)C(C)C)n1 [TAE-684],> 2000

# Tested on: no-11;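 also: growth inhibition of human NO-11 cells, read out with a cell viability assay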
# Assay: cells
# Assay type: functional, cell-based, Homo sapiens
# Conditions: Homo sapiens
# Description: SANGER: Inhibition of human no-11 cell growth in a cell viability assay.
row,SMILES,IC50 [nM]
1,COc1cc(N2CCC(N3CCN(C)CC3)CC2)ccc1Nc1ncc(Cl)c(Nc2ccccc2S(=O)(=O)C(C)C)n1 [TAE-684],> 2000

# Tested on: COLO-684
# Assay: cells
# Assay type: functional, cell-based, Homo sapiens
# Conditions: Homo sapiens, COLO-684
# Description: SANGER: Inhibition of human COLO-684 cell growth in a cell viability assay.
row,SMILES,IC50 [nM]
1,COc1cc(N2CCC(N3CCN(C)CC3)CC2)ccc1Nc1ncc(Cl)c(Nc2ccccc2S(=O)(=O)C(C)C)n1 [TAE-684],> 2000

# Reference: ChEMBL document CHEMBL1201861, “Genomics of Drug Sensitity in Cancer screening data, Wellcome Trust Sanger Institute”
